# Reference: US5230998A, “Method for the prescreening of drugs targeted to the V3 hypervariable loop of the HIV-1 envelope glycoprotein gp 120” (priority 1991, dated 1993)
# Experiments:
# [1] = biological target: T1, V3 hypervariable loop peptide (303-338) (Human immunodeficiency virus type 1 BH10, UniProt P03375); experiment: Inhibition by ATA of reaction between peptide and homologous antibodies (FIG. 1B); type: binding, HIV-1 BH 10; details: ATA 50 μg/ml
# T1 construct: cut from Env gp160
# Experimental: (§1) FIG. 1 comprises four bar graphs concerning the interaction of aurintricarboxylic acid (ATA) with the V3 hypervariable loop of gp120 and with distinct peptides derived from the sequence of gp160. FIG. 1A: Inhibitory effect of ATA (50 μg/ml) on the reaction of antibodies to peptides from the sequence of HIV-1 gp160 with gp120 or gp160. gp120-coated wells were used for antisera to peptides from gp120 and gp160-coated wells were used with antisera to peptides from gp41. FIG. 1B: Inhibitory effect of ATA (50 μg/ml) on the reaction between antibodies to peptides from gp120/gp41 and homologous peptides. FIG. 1C: binding of ATA to wells coated with distinct peptides from the sequence of gp160, as determined by subsequent binding of anti-ATA antibodies. FIG. ID: Net electric charge of peptides from the sequence of gp160, determined by subtracting the number of aspartic (D) and glutamic (E) residues from the sum of lysine (K) and arginine (R) residues present in distinct segments of the gp160 sequence. The horizontal dotted line indicates the boundary between non-significant and significant inhibition, established from three times repeated experiments.
# (§2) Wells of 96 well polystyrene plates (Immulon 2, Dynatech Laboratories, Inc., Chantilly, Va.) were coated with synthetic peptides (200 μl; 20μg/ml in 0.1 M Tris-HCl, pH 8.8) overnight at 20° C. The peptides were from the sequence of HIV-1, clone BH 10 envelope glycoproteins gp120 and gp41 (Neurath, A. R., Strick, N., and Lee, E. Y. S. (1990), "B-cell Epitope Mapping of Human Immunodeficiency virus (HIV-1) Envelope Glycoprotein with Long (19 to 36-residue) Synthetic Peptides", J. Gen. Virol., 71., 85-95) and from V3 hypervariable loops of 21 distinct HIV-1 isolates (clones) Neurath, A. R., and Strick, N., (1990), "Confronting the Hypervariability of an Immunodominant Epitope Eliciting Virus Neutralizing Antibodies from the Envelope Glycoprotein of the Human Immunodeficiency Virus Type 1 (HIV-1)", Molec. Immunol., 27, 539-549. The latter peptides corresponded to full-length V3 loops generated by disulfide bonds between N- and C- terminal cysteine residues. After washing with 0.14 M NaCl, 0.01 M Tris, 0.02% NaN3 (TS), the wells were postcoated with a mixture of bovine serum albumin (BSA) and gelatine (10 and 2.5 mg/ml, respectively) in TS. […]
# (§3) To define sites on gp120/gp41 reacting with ATA, the inhibitory effect of this compound was studied by RIA tests using gp120- and gp160-coated wells, respectively, and antisera (final dilutions 1:150) against synthetic peptides from the entire sequence of gp120/gp41 of HIV-1 BH 10. […] Attached rabbit IgG was detected using ^125 I-labeled anti-rabbit IgG, as described before (Neurath et al., 1990, J. Gen. Virol., 71, 85-95). […]
# [2] = biological target: peptide (331-361) (Human immunodeficiency virus type 1 BH10, UniProt P03375); experiment: as above; type: binding, HIV-1 BH 10; details: ATA 50 μg/ml
# Experimental: as §1, §2, §3
# [3] = biological target: peptide (492-518) (Human immunodeficiency virus type 1 BH10, UniProt P03375); experiment: as above; type: binding, HIV-1 BH 10; details: ATA 50 μg/ml
# Experimental: as §1, §2, §3
# [4] = biological target: peptide (845-862) from gp41 (Human immunodeficiency virus type 1 BH10, UniProt P03375); experiment: as above; type: binding, HIV-1 BH 10; details: ATA 50 μg/ml
# Experimental: as §1, §2, §3
# [5] = test system: H9 cells; experiment: Toxicity for cells; type: cell-based; details: at the concentrations used
# Source text: (§4) The combined effects of AZT and ATA, and other compounds shown to be effective in Table 1, hereinbelow, against HIV-1 are also contemplated by the present invention, since synergistic drug combinations would offer means for alleviating toxicity due to AZT, observed in clinical settings. Contemplated combinations include, for example, AZT+ATA, AZT+chlorin e6; AZT+deuteroporphyrin IX, 2,4(4,2) hydroxyethyvinyl; and AZT+meso-tetra(4-carboxyphenyl)porphine.
# [6] = test system: MT-2 cells; experiment: Toxicity for cells; type: cell-based; details: at the concentrations used
# Source text: as §4
# [7] = test system: U937 cells; experiment: Toxicity for cells; type: cell-based; details: at the concentrations used
# Source text: as §4
# T1 sequence (P03375 296-331): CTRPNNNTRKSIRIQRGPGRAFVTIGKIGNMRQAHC
# Chain of peptide (845-862) from gp41 (P03375 512-856): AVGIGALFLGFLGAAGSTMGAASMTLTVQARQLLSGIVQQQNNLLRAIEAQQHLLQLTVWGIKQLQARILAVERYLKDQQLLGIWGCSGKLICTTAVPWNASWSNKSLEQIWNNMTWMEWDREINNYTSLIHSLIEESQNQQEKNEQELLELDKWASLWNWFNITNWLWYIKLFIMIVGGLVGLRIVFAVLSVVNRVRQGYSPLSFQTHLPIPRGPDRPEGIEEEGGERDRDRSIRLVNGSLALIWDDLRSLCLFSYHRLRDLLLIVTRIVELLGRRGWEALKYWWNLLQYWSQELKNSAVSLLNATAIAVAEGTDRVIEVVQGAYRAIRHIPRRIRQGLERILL
# Chain of peptide (492-518) (P03375 492-518): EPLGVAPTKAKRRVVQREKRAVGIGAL
# Chain of peptide (331-361) (P03375 324-354): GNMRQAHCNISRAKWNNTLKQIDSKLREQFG
compound,measurement,setting,value
"O=C(O)C1=CC(=C(c2ccc(O)c(C(=O)O)c2)c2ccc(O)c(C(=O)O)c2)C=CC1=O [substance #122, aurintricarboxylic acid]",inhibition of reaction of peptide with homologous antibodies,[1],most dramatically inhibited
same,inhibition of reaction of peptide with homologous antibodies,[2],Inhibition was also observed
same,inhibition of reaction of peptide with homologous antibodies,[3],did not inhibit the reaction between this peptide and homologous anti-peptide antibodies
same,inhibition of reaction of peptide with homologous antibodies,[4],Inhibition was also observed
same,toxicity for H9 cells,[5],lack of toxicity
same,toxicity for MT-2 cells,[6],lack of toxicity
same,toxicity for U937 cells,[7],lack of toxicity
